Experimental data from US20260347361A1, “LRRK2 INHIBITORS AND USES THEREOF” (NEURON23, INC, priority 2022, published 2026).
pIC50: −log10 of the molar value.

Target: T1, wt human LRRK2 (Homo sapiens, UniProt Q5S007)
T1 construct: wt human LRRK2, catalytic site, catalytic site (ThermoFisher/USA); purchased ThermoFisher
Test: TR-FRET LanthaScreen Tb Kinase Activity Assay, inhibition of LRRK2 kinase
Type: biochemical
Details: 2 nM wt human LRRK2, 400 nM fluorescein-ERM (LRRKtide) peptide, 38 µM ATP, 15 min pre-incubation, 120 min at room temperature
Protocol: In Table 2, activity is provided as the following: “+++”=IC50 less than 50 nM; “++”=IC50 between 50 nM and 200 nM; “+”=IC50> or =200 nM.
The compounds listed in Table 2 were tested for their inhibitory effect on LRRK2 kinase according to the following procedures.
The protocol for basic TR-FRET LanthaScreen Tb Kinase Activity Assay inhibitor studies were as follows. LanthaScreen Kinase Activity Assays (ThermoFisher/USA) to evaluate inhibitors were performed by addition of 100 nl of test compound in corresponding DMSO dilutions/5 μl of kinase/fluorescein-ERM(LRRKtide) peptide mixture, Compound & kinase were pre-incubated for 15 minutes, then 5 μl of ATP into 384 well small volume plates. After incubation for 120 minutes at room temperature, the detection reagents containing Tb-anti-pLRRKtide antibody were added to monitor phosphorylation level of peptide. Then, after 60 min minutes incubation at room temperature plates were read in Envision. Data analysis of emission ratios was according to LanthaScreen Tb Kinase Activity Assay protocol.
Kinase and assay components were adjusted to final concentrations according to the kit protocol. For LRRK2: 2 nM wt human LRRK2, catalytic site, catalytic site (ThermoFisher/USA), 400 nM peptide, 38 µM ATP in 1× Kinase Buffer A.
Basic protocol for TR-FRET LanthaScreen Tb Kinase Activity Assay inhibitor studies involved two steps:
Enzymatic step: Addition of […] of test compound in corresponding DMSO dilutions, 5 μL of kinase/substrate mixture, 5 μL of ATP into 384 well small volume plates. Incubation for 120 minutes at room temperature.
Detection step: Addition of 10 μL EDTA & antibody, read plate after 60 minutes. Data analysis of emission ratios according to KinEASE assay protocol.
Kinase and assay components were adjusted to final concentrations according to the kit protocol.

T1 sequence (Q5S007 970-2527 limits assumed): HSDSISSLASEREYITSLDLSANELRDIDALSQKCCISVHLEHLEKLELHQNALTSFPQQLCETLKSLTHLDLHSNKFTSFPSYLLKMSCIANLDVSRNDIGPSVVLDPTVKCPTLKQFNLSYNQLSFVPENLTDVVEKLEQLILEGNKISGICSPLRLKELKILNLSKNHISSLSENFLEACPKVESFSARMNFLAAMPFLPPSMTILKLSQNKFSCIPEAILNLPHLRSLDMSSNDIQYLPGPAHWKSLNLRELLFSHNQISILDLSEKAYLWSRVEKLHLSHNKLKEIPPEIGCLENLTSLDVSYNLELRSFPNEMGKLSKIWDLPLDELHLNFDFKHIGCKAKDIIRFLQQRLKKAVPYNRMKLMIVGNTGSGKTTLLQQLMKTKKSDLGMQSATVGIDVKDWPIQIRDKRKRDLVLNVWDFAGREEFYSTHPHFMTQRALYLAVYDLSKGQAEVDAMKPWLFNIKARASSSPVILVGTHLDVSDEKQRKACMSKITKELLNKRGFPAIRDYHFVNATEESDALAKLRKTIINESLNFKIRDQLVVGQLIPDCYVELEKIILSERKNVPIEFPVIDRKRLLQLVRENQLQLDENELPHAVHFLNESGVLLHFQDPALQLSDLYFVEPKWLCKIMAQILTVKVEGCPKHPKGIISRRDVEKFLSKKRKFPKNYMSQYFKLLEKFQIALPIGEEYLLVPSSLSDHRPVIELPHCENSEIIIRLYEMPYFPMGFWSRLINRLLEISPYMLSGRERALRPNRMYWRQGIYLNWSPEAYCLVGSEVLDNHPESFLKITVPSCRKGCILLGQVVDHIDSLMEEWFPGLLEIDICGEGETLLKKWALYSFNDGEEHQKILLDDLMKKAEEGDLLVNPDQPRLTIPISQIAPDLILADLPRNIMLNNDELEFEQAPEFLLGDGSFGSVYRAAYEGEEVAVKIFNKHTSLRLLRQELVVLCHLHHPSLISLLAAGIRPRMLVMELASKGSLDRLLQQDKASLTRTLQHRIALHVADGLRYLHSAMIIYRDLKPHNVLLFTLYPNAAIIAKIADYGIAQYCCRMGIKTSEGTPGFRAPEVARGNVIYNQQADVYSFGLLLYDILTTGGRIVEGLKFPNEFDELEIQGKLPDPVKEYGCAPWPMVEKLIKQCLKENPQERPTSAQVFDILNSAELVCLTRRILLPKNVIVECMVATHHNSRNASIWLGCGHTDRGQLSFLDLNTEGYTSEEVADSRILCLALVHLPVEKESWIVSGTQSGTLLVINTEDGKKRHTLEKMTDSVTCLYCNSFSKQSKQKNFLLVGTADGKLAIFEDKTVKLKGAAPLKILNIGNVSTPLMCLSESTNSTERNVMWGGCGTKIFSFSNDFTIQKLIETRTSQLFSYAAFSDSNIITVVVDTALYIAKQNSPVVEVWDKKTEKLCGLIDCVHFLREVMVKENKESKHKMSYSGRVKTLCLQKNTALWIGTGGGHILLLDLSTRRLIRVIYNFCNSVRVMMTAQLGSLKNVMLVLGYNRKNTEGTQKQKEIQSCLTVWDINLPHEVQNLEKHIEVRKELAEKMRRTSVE

SMILES | pIC50
C[C@H]1CN(c2cc3c(cn2)NC(c2c(F)cccc2F)=Nc2ccnn2-3)C[C@H](C)O1 [(2S,6S)-4-(5-(2,6-difluorophenyl)-6H-pyrazolo[1,5-a]pyrido[3,4-f][1,3,5]triazepin-9-yl)-2,6-dimethylmorpholine] | > 7.30
C[C@H]1CN(c2cc3c(cn2)NC(c2c(F)cccc2F)=Nc2c(F)cnn2-3)C[C@H](C)O1 [(2S,6S)-4-(5-(2,6-difluorophenyl)-3-fluoro-6H-pyrazolo[1,5-a]pyrido[3,4-f][1,3,5]triazepin-9-yl)-2,6-dimethylmorpholine] | 6.70 to 7.30
Fc1cccc(F)c1C1=Nc2c(Cl)cnn2-c2cc(N3CCC4(CC3)COC4)ccc2N1 [7-[3-chloro-5-(2,6-difluorophenyl)-6H-pyrazolo[1,5-a][1,3,5]benzotriazepin-9-yl]-2-oxa-7-azaspiro[3.5]nonane] | > 7.30
COC(=O)c1ccc2c(c1)-n1ncc(Cl)c1N=C(c1c(F)cccc1F)N2 [Methyl 3-chloro-5-(2,6-difluorophenyl)-6H-pyrazolo[1,5-a][1,3,5]benzotriazepine-9-carboxylate] | > 7.30
Fc1cccc(F)c1C1=Nc2c(Cl)cnn2-c2cc(N3CCCOCC3)ccc2N1 [4-[3-chloro-5-(2,6-difluorophenyl)-6H-pyrazolo[1,5-a][1,3,5]benzotriazepin-9-yl]-1,4-oxazepane] | > 7.30
O=C(NCCO)c1ccc2c(c1)-n1ncc(Cl)c1N=C(c1c(F)cccc1F)N2 [3-chloro-5-(2,6-difluorophenyl)-N-(2-hydroxyethyl)-6H-pyrazolo[1,5-a][1,3,5]benzotriazepine-9-carboxamide] | > 7.30
Fc1cccc(F)c1C1=Nc2c(Cl)cnn2-c2cc(N3CCOCC3)ccc2N1 [4-[3-chloro-5-(2,6-difluorophenyl)-6H-pyrazolo[1,5-a][1,3,5]benzotriazepin-9-yl]morpholine] | > 7.30
C[C@@H]1CN(c2ccc3c(c2)-n2ncc(Cl)c2N=C(c2c(F)cccc2F)N3)C[C@H](C)O1 [(2R,6S)-4-(3-chloro-5-(2,6-difluorophenyl)-6H-benzo[f]pyrazolo[1,5-a][1,3,5]triazepin-9-yl)-2,6-dimethylmorpholine] | 6.70 to 7.30
Fc1cccc(F)c1C1=Nc2ccnn2-c2cc(N3CCOCC3)ncc2N1 [4-(5-(2,6-difluorophenyl)-6H-pyrazolo[1,5-a]pyrido[3,4-f][1,3,5]triazepin-9-yl)morpholine] | > 7.30
Cn1cc(-c2ccc3c(c2)-n2ncc(Cl)c2N=C(c2c(F)cccc2F)N3)cn1 [3-chloro-5-(2,6-difluorophenyl)-9-(1-methylpyrazol-4-yl)-6H-pyrazolo[1,5-a][1,3,5]benzotriazepine] | > 7.30
Fc1cccc(F)c1C1=Nc2c(Cl)cnn2-c2cc(N3C[C@H]4C[C@@H]3CO4)ccc2N1 [(1R,4R)-5-[3-chloro-5-(2,6-difluorophenyl)-6H-pyrazolo[1,5-a][1,3,5]benzotriazepin-9-yl]-2-oxa-5-azabicyclo[2.2.1]heptane] | > 7.30
CC(C)NC(=O)c1ccc2c(c1)-n1ncc(Cl)c1N=C(c1c(F)cccc1F)N2 [3-chloro-5-(2,6-difluorophenyl)-N-isopropyl-6H-pyrazolo[1,5-a][1,3,5]benzotriazepine-9-carboxamide] | > 7.30
Fc1cccc(F)c1C1=Nc2c(Cl)cnn2-c2cc(N3C4COCC3C4)ccc2N1 [6-[3-chloro-5-(2,6-difluorophenyl)-6H-pyrazolo[1,5-a][1,3,5]benzotriazepin-9-yl]-3-oxa-6-azabicyclo[3.1.1]heptane] | > 7.30
C[C@@H]1COCCN1c1ccc2c(c1)-n1ncc(Cl)c1N=C(c1c(F)cccc1F)N2 [(3R)-4-[3-chloro-5-(2,6-difluorophenyl)-6H-pyrazolo[1,5-a][1,3,5]benzotriazepin-9-yl]-3-methyl-morpholine] | > 7.30
Fc1cccc(F)c1C1=Nc2c(Br)cnn2-c2cc(N3CCOCC3)ncc2N1 [4-(3-bromo-5-(2,6-difluorophenyl)-6H-pyrazolo[1,5-a]pyrido[3,4-f][1,3,5]triazepin-9-yl)morpholine] | > 7.30
Fc1cccc(F)c1C1=Nc2c(Cl)cnn2-c2cc(N3C[C@@H]4C[C@H]3CO4)ccc2N1 [(1S,4S)-5-[3-chloro-5-(2,6-difluorophenyl)-6H-pyrazolo[1,5-a][1,3,5]benzotriazepin-9-yl]-2-oxa-5-azabicyclo[2.2.1]heptane] | > 7.30
Fc1cccc(F)c1C1=Nc2c(Cl)cnn2-c2cc(N3CCC(F)(F)C3)ccc2N1 [3-chloro-5-(2,6-difluorophenyl)-9-(3,3-difluoropyrrolidin-1-yl)-6H-pyrazolo[1,5-a][1,3,5]benzotriazepine] | > 7.30
C[C@@H]1CN(c2ccc3c(c2)-n2ncc(Cl)c2N=C(c2c(F)cccc2F)N3)C[C@@H](C)O1 [(2R,6R)-4-(3-chloro-5-(2,6-difluorophenyl)-6H-benzo[f]pyrazolo[1,5-a][1,3,5]triazepin-9-yl)-2,6-dimethylmorpholine] | > 7.30
Fc1cccc(F)c1C1=Nc2c(Cl)cnn2-c2cc(N3CCOCC3)ncc2N1 [4-(3-Chloro-5-(2,6-difluorophenyl)-6H-pyrazolo[1,5-a]pyrido[3,4-f][1,3,5]triazepin-9-yl)morpholine] | > 7.30
Fc1cccc(F)c1C1=Nc2c(Cl)cnn2-c2cc(N3CC(F)C3)ccc2N1 [3-chloro-5-(2,6-difluorophenyl)-9-(3-fluoroazetidin-1-yl)-6H-pyrazolo[1,5-a][1,3,5]benzotriazepine] | > 7.30
C[C@H]1CN(c2cc3c(cn2)NC(c2c(F)cccc2F)=Nc2c(Cl)cnn2-3)C[C@H](C)O1 [(2S,6S)-4-[5-chloro-8-(2,6-difluorophenyl)-2,3,7,9,12-pentazatricyclo[8.4.0.02,6]tetradeca-1(10),3,5,7,11,13-hexaen-13-yl]-2,6-dimethyl-morpholine] | > 7.30
O=C(NO)c1ccc2c(c1)-n1ncc(Cl)c1N=C(c1c(F)cccc1F)N2 [3-chloro-5-(2,6-difluorophenyl)-6H-pyrazolo[1,5-a][1,3,5]benzotriazepine-9-carbohydroxamic acid] | > 7.30
COC(=O)c1cnc2c(c1)-n1ncc(Cl)c1N=C(c1c(F)cccc1F)N2 [Methyl 5-chloro-8-(2,6-difluorophenyl)-2,3,7,9,11-pentazatricyclo[8.4.0.02,6]tetradeca-1(10),3,5,7,11,13-hexaene-13-carboxylate] | > 7.30

Further lines, results first:

pIC50 | SMILES
> 7.30 | CNC(=O)c1ccc2c(c1)-n1ncc(Cl)c1N=C(c1c(F)cccc1F)N2 [3-chloro-5-(2,6-difluorophenyl)-N-methyl-6H-pyrazolo[1,5-a][1,3,5]benzotriazepine-9-carboxamide]
> 7.30 | C[C@H]1CN(c2cc3c(cn2)NC(c2c(F)cccc2F)=Nc2c(F)cnn2-3)CCO1 [(S)-4-(5-(2,6-difluorophenyl)-3-fluoro-6H-pyrazolo[1,5-a]pyrido[3,4-f][1,3,5]triazepin-9-yl)-2-methylmorpholine]
> 7.30 | Fc1cccc(F)c1C1=Nc2c(Cl)cnn2-c2cc(N3CC4(CC(F)C4)C3)ccc2N1 [3-chloro-5-(2,6-difluorophenyl)-9-(6-fluoro-2-azaspiro[3.3]heptan-2-yl)-6H-pyrazolo[1,5-a][1,3,5]benzotriazepine]
> 7.30 | COC1CCN(c2ccc3c(c2)-n2ncc(Cl)c2N=C(c2c(F)cccc2F)N3)C1 (racemic) [3-chloro-5-(2,6-difluorophenyl)-9-(3-methoxypyrrolidin-1-yl)-6H-pyrazolo[1,5-a][1,3,5]benzotriazepine]
> 7.30 | Fc1cccc(F)c1C1=Nc2c(Cl)cnn2-c2cc(N3C4CCC3COC4)ccc2N1 [8-[3-chloro-5-(2,6-difluorophenyl)-6H-pyrazolo [1,5-a][1,3, 5]benzotriazepin-9-yl]-3-oxa-8-azabicyclo [3.2.1]octane]
> 7.30 | COC1CN(c2ccc3c(c2)-n2ncc(Cl)c2N=C(c2c(F)cccc2F)N3)C1 [3-chloro-5-(2,6-difluorophenyl)-9-(3-methoxyazetidin-1-yl)-6H-pyrazolo[1,5-a][1,3,5]benzotriazepine]
> 7.30 | Fc1cccc(F)c1C1=Nc2c(Cl)cnn2-c2cc(N3CC4CC(C3)O4)ccc2N1 [3-[3-chloro-5-(2,6-difluorophenyl)-6H-pyrazolo [1,5-a][1,3,5]benzotriazepin-9-yl]-6-oxa-3-azabicyclo [3.1.1]heptane]
< 6.70 | CC(C)S(=O)(=O)NC(=O)c1ccc2c(c1)-n1ncc(Cl)c1N=C(c1c(F)cccc1F)N2
< 6.70 | Fc1cccc(N2CCOCC2)c1C1=Nc2c(Cl)cnn2-c2cc(N3CCOCC3)ccc2N1 [4-[3-chloro-5-(2-fluoro-6-morpholino-phenyl)-6H-pyrazolo[1,5-a][1,3,5]benzotriazepin-9-yl]morpholine]
> 7.30 | COCCNC(=O)c1ccc2c(c1)-n1ncc(Cl)c1N=C(c1c(F)cccc1F)N2 [3-chloro-5-(2,6-difluorophenyl)-N-(2-methoxyethyl)-6H-pyrazolo[1,5-a][1,3,5]benzotriazepine-9-carboxamide]
